Like-named read-outs stand apart in the source and are kept apart here. Marks after values point to notes of the source that are not given here.
Assays:
[1] = cited from earlier work
[2] = test system: hollow fiber-encapsulated M. tuberculosis H37Rv-lux
[3] = Serum antibiotic concentrations in mice on medicated diet; settings: for Cmean: serum; for AUC: SKH1, mouse, in vivo

SMILES | AUC ([1]; Isoniazid, Humans (5 mg/kg), rapid acetylators) | AUC ([1]; human, in vivo, 5 mg/kg) | activity against bacilli in the hollow fiber model in vivo [2] | Cmean ([3]; Isoniazid, SKH1 mice (0.02% diet)) | AUC ([3]; 0.02 % of diet) | AUC ([1]; human, in vivo, 10 mg/kg) | Cmax ([1]; human, in vivo, 10 mg/kg) | kill of hollow fiber-encapsulated bacilli ([2]; in vivo) | Cmean ([3]; Rifampin, SKH1 mice (0.05% diet)) | AUC ([3]; 0.05 % of diet)
NNC(=O)c1ccncc1 [Isoniazid, isoniazid] | 19.9 ± 6.1^a mg h/L | 48.2 ± 1.5^b mg h/L | somewhat effective | 0.77 ± 0.21 mg/L | 18500 ± 5000 ng·h/mL | – | – | – | – | –
CO[C@H]1/C=C/O[C@@]2(C)Oc3c(C)c(O)c4c(O)c(c(/C=N/N5CCN(C)CC5)c(O)c4c3C2=O)NC(=O)/C(C)=C\C=C\[C@H](C)[C@H](O)[C@@H](C)[C@@H](O)[C@@H](C)[C@H](OC(C)=O)[C@@H]1C [Rifampin, rifampin] | – | – | magnitude of its effect greater than that of isoniazid | – | – | 117.93 mg·h/L | 14.91 mg/L | 3 log | 3.09 ± 0.41 mg/L | 74200 ± 9800 ng·h/mL
